Experimental findings from US10829520B2, “Beta-hairpin peptidomimetics” (POLYPHOR AG, priority 2015, dated 2020) are described below.

Where a SMILES comes first, the peptide text is derived from it. Bridges are numbered along the chain shown (N, C = ends). [ ]: non-standard residue; d: D form. Tle = CC(C)(C)[C@H](N)C(=O)O; Nle = CCCC[C@H](N)C(=O)O; Orn = NCCC[C@H](N)C(=O)O; Dab = NCC[C@H](N)C(=O)O; Dap = NC[C@H](N)C(=O)O; Aib = CC(C)(N)C(=O)O

Common to all, as to format: cell-based
The subject of data set [1] is human red blood cells (hRBC). The experiment in a line: Hemolysis of human red blood cells. The note with it: red cells of human, 1 h, 100 μg/mL. An outline of the steps:
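hRBC washed 3× PBS; 20% v/v, ~0.9×10^9 cells/mL final. Peptide 100 μg/mL, 1 h, 37° C., 300 rpm. Spin, supernatant diluted 8×, OD540. 0% = PBS + 0.001% acetic acid; 100% = 2.5% Triton X-100. % hemolysis = OD540 peptide/OD540 full lysis × 100.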

Data set [2] deals with Klebsiella pneumoniae SSI #3010. The note with it: SSI #3010. An outline of the steps:
(§1)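 Minimal inhibitory concentrations were recorded in μg/mL after the strains grew 18-20 hours at 35° C with two-fold serial peptide dilutions. The medium was Mueller-Hinton II (cation-adjusted) with 0.002% Polysorbate 80, and the inoculum was about 10^6 CFU/mL.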

The test system of data set [3] is Escherichia coli ATCC 25922. The following applies: ATCC 25922. An outline of the steps: as §1
The test system of the next data set is Escherichia coli 926415. The note with it: 926415.
Data set [4] deals with Klebsiella pneumoniae 968733. The following applies: 968733.
For data set [5], the system named is Pseudomonas aeruginosa ATCC 27853. The note with it: ATCC 27853. An outline of the steps: as §1
Data set [6] deals with Acinetobacter baumannii DSM 30008. The following applies: DSM 30008. An outline of the steps: as §1
Data set [7] relates to Acinetobacter baumannii 872842. The following applies: 872842.

On to `CCCC[C@@H]1NC(=O)[C@@H]2CCCN2C(=O)[C@H]2CCCN2C(=O)[C@H](CO)NC(=O)[C@H](C)NC(=O)[C@H](C(C)(C)C)NC(=O)[C@@H](NC(=O)[C@H](Cc2c[nH]c3ccccc23)NC(=O)[C@@H](N)CCN)CSSC[C@@H](C(=O)N[C@@H](CCN)C(=O)N[C@H](C(=O)N[C@@H](CCN)C(=O)N[C@H]2CCNC(=O)[C@H]([C@@H](C)O)NC(=O)[C@H](CCN)NC(=O)[C@H](CCN)NC(=O)[C@H](CC(C)C)NC(=O)[C@@H](Cc3ccccc3)NC(=O)[C@H](CCN)NC2=O)[C@@H](C)O)NC(=O)[C@H](Cc2ccc(O)cc2)NC(=O)[C@H](CO)NC1=O` [Ex. 42] (H-[Dab]WC[Tle]AS[dP]P[Nle]SYC[Dab]T[Dab][Dab][Dab][dF]L[Dab][Dab]T; disulfide 3-12; lactam 16-C), for which, in data set [1], the “Hemolysis at 100 μg/mL” value is less than 1%. Moreover, in data set [2], the “Klebsiella pneumoniae SSI #3010 MIC” value is 0.25 µg/mL. Further, in data set [3], the “Escherichia coli ATCC 25922 MIC” value turned out to be 0.125 µg/mL. The “Escherichia coli 926415 MIC” value in the data set on Escherichia coli 926415 is 0.25 µg/mL. Moreover, the “Klebsiella pneumoniae 968733 MIC” value in data set [4] was 2 µg/mL. Further, the “Pseudomonas aeruginosa ATCC 27853 MIC” value in data set [5] came out at 0.25 µg/mL. Further, the “Acinetobacter baumannii DSM 30008 MIC” value in data set [6] came to 0.25 µg/mL. In data set [7], the “Acinetobacter baumannii 872842 MIC” value worked out at 0.25 µg/mL.
On to `CCCC[C@@H]1NC(=O)[C@@H]2CCCN2C(=O)[C@H]2CCCN2C(=O)[C@H](CO)NC(=O)[C@H](C)NC(=O)[C@H](C(C)(C)C)NC(=O)[C@@H](NC(=O)[C@H](Cc2c[nH]c3ccccc23)NC(=O)[C@@H](N)[C@@H](C)O)CSSC[C@@H](C(=O)N[C@@H](CCN)C(=O)N[C@H](C(=O)N[C@@H](CCN)C(=O)N[C@H]2CCNC(=O)[C@H]([C@@H](C)O)NC(=O)[C@H](CCN)NC(=O)[C@H](CCN)NC(=O)[C@H](CC(C)C)NC(=O)[C@@H](Cc3ccccc3)NC(=O)[C@H](CCN)NC2=O)[C@@H](C)O)NC(=O)[C@H](Cc2ccc(O)cc2)NC(=O)[C@H](CO)NC1=O` [Ex. 43] (H-TWC[Tle]AS[dP]P[Nle]SYC[Dab]T[Dab][Dab][Dab][dF]L[Dab][Dab]T; disulfide 3-12; lactam 16-C), for which, in data set [1], the “Hemolysis at 100 μg/mL” value was found to be 1%. Moreover, the “Klebsiella pneumoniae SSI #3010 MIC” value in data set [2] was 0.25 µg/mL. Besides, in data set [3], the “Escherichia coli ATCC 25922 MIC” value stood at 0.125 µg/mL. Besides, the “Escherichia coli 926415 MIC” value in the data set on Escherichia coli 926415 is 1.5 µg/mL. For the same compound, in data set [4], the “Klebsiella pneumoniae 968733 MIC” value was determined as 0.5 µg/mL. Also, the “Pseudomonas aeruginosa ATCC 27853 MIC” value in data set [5] was found to be 0.5 µg/mL. For the same compound, the “Acinetobacter baumannii DSM 30008 MIC” value in data set [6] worked out at 0.5 µg/mL. For the same compound, the “Acinetobacter baumannii 872842 MIC” value in data set [7] was found to be 1.5 µg/mL.
For the compound `CCCC[C@@H]1NC(=O)[C@@H]2CCCN2C(=O)[C@H]2CCCN2C(=O)[C@H](CO)NC(=O)[C@H](C)NC(=O)[C@H](C(C)(C)C)NC(=O)[C@@H](NC(=O)[C@H](Cc2c[nH]c3ccccc23)NC(=O)C(C)(C)N)CSSC[C@@H](C(=O)N[C@@H](CCN)C(=O)N[C@H](C(=O)N[C@@H](CCN)C(=O)N[C@H]2CCNC(=O)[C@H]([C@@H](C)O)NC(=O)[C@H](CCN)NC(=O)[C@H](CCN)NC(=O)[C@H](CC(C)C)NC(=O)[C@@H](Cc3ccccc3)NC(=O)[C@H](CCN)NC2=O)[C@@H](C)O)NC(=O)[C@H](Cc2ccc(O)cc2)NC(=O)[C@H](CO)NC1=O` [Ex. 44] (H-[Aib]WC[Tle]AS[dP]P[Nle]SYC[Dab]T[Dab][Dab][Dab][dF]L[Dab][Dab]T; disulfide 3-12; lactam 16-C), the “Hemolysis at 100 μg/mL” value in data set [1] is on record as less than 1%. Also, the “Klebsiella pneumoniae SSI #3010 MIC” value in data set [2] turned out to be 0.25 µg/mL. The “Escherichia coli ATCC 25922 MIC” value in data set [3] turned out to be 0.125 µg/mL. The “Escherichia coli 926415 MIC” value in the data set with Escherichia coli 926415 was found to be 0.25 µg/mL. Also, the “Klebsiella pneumoniae 968733 MIC” value in data set [4] came to 2 µg/mL. For the same compound, in data set [5], the “Pseudomonas aeruginosa ATCC 27853 MIC” value came to 0.25 µg/mL. Besides, the “Acinetobacter baumannii DSM 30008 MIC” value in data set [6] was 0.125 µg/mL. For the same compound, in data set [7], the “Acinetobacter baumannii 872842 MIC” value was 0.5 µg/mL.
As for `CCCC[C@@H]1NC(=O)[C@@H]2CCCN2C(=O)[C@H]2CCCN2C(=O)[C@H](CO)NC(=O)[C@H](C)NC(=O)[C@H](C(C)(C)C)NC(=O)[C@@H](NC(=O)[C@@H](N)Cc2c[nH]c3ccccc23)CSSC[C@@H](C(=O)N[C@@H](CCCN)C(=O)N[C@@H](CCN)C(=O)N[C@H]2CCNC(=O)[C@H]([C@@H](C)O)NC(=O)[C@H](CCN)NC(=O)[C@H](CCN)NC(=O)[C@H](CC(C)C)NC(=O)[C@@H](Cc3ccccc3)NC(=O)[C@H](CCN)NC2=O)NC(=O)[C@H](Cc2ccc(O)cc2)NC(=O)[C@H](CO)NC1=O` [Ex. 45] (H-WC[Tle]AS[dP]P[Nle]SYC[Orn][Dab][Dab][Dab][dF]L[Dab][Dab]T; disulfide 2-11; lactam 14-C), the “Hemolysis at 100 μg/mL” value in data set [1] amounted to 1%. The “Klebsiella pneumoniae SSI #3010 MIC” value in data set [2] came out at 0.125 µg/mL. For the same compound, the “Escherichia coli ATCC 25922 MIC” value in data set [3] is 0.125 µg/mL. Also, the “Escherichia coli 926415 MIC” value in the data set with Escherichia coli 926415 was determined as 0.25 µg/mL. The “Klebsiella pneumoniae 968733 MIC” value in data set [4] was determined as 0.25 µg/mL. In addition, the “Pseudomonas aeruginosa ATCC 27853 MIC” value in data set [5] is 0.5 µg/mL. Besides, the “Acinetobacter baumannii DSM 30008 MIC” value in data set [6] stood at 0.125 µg/mL. The “Acinetobacter baumannii 872842 MIC” value in data set [7] is 0.25 µg/mL.
For the compound `CCCC[C@@H]1NC(=O)[C@@H]2CCCN2C(=O)[C@H]2CCCN2C(=O)[C@H](CO)NC(=O)[C@H](C)NC(=O)[C@H](C(C)(C)C)NC(=O)[C@@H](NC(=O)[C@H](Cc2c[nH]c3ccccc23)NC(C)=O)CSSC[C@@H](C(=O)N[C@@H](CCCN)C(=O)N[C@@H](CCN)C(=O)N[C@H]2CCNC(=O)[C@H]([C@@H](C)O)NC(=O)[C@H](CCN)NC(=O)[C@H](CCN)NC(=O)[C@H](CC(C)C)NC(=O)[C@@H](Cc3ccccc3)NC(=O)[C@H](CCN)NC2=O)NC(=O)[C@H](Cc2ccc(O)cc2)NC(=O)[C@H](CN)NC1=O` [Ex. 46] (Ac-WC[Tle]AS[dP]P[Nle][Dap]YC[Orn][Dab][Dab][Dab][dF]L[Dab][Dab]T; disulfide 2-11; lactam 14-C), in data set [1], the “Hemolysis at 100 μg/mL” value is reported as less than 1%. Also, the “Klebsiella pneumoniae SSI #3010 MIC” value in data set [2] was 0.25 µg/mL. The “Escherichia coli ATCC 25922 MIC” value in data set [3] is 0.125 µg/mL. Moreover, in the data set on Escherichia coli 926415, the “Escherichia coli 926415 MIC” value was determined as 0.5 µg/mL. Also, the “Klebsiella pneumoniae 968733 MIC” value in data set [4] amounted to 2 µg/mL. The “Pseudomonas aeruginosa ATCC 27853 MIC” value in data set [5] was determined as 2 µg/mL. The “Acinetobacter baumannii DSM 30008 MIC” value in data set [6] came to 0.25 µg/mL. In addition, the “Acinetobacter baumannii 872842 MIC” value in data set [7] is 0.5 µg/mL.
With `CCCC[C@@H]1NC(=O)[C@@H]2CCCN2C(=O)[C@H]2CCCN2C(=O)[C@H](CO)NC(=O)[C@H]([C@@H](C)O)NC(=O)[C@H](C(C)(C)C)NC(=O)[C@@H](NC(=O)[C@H](Cc2c[nH]c3ccccc23)NC(C)=O)CSSC[C@@H](C(=O)N[C@@H](CCCN)C(=O)N[C@@H](CCN)C(=O)N[C@H]2CCNC(=O)[C@H]([C@@H](C)O)NC(=O)[C@H](CCN)NC(=O)[C@H](CCN)NC(=O)[C@H](CC(C)C)NC(=O)[C@@H](Cc3ccccc3)NC(=O)[C@H](CCN)NC2=O)NC(=O)[C@H](Cc2ccc(O)cc2)NC(=O)[C@H](CO)NC1=O` [Ex. 47] (Ac-WC[Tle]TS[dP]P[Nle]SYC[Orn][Dab][Dab][Dab][dF]L[Dab][Dab]T; disulfide 2-11; lactam 14-C), the “Hemolysis at 100 μg/mL” value in data set [1] amounted to 1%. Besides, the “Klebsiella pneumoniae SSI #3010 MIC” value in data set [2] turned out to be 0.5 µg/mL. In addition, the “Escherichia coli ATCC 25922 MIC” value in data set [3] stood at 0.25 µg/mL. Also, the “Escherichia coli 926415 MIC” value in the data set on Escherichia coli 926415 amounted to 0.5 µg/mL. Besides, the “Klebsiella pneumoniae 968733 MIC” value in data set [4] is 1 µg/mL. For the same compound, the “Pseudomonas aeruginosa ATCC 27853 MIC” value in data set [5] is 0.5 µg/mL. In data set [6], the “Acinetobacter baumannii DSM 30008 MIC” value came to 0.25 µg/mL. In addition, the “Acinetobacter baumannii 872842 MIC” value in data set [7] amounted to 0.5 µg/mL.
With `CCCC[C@@H]1NC(=O)[C@@H]2CCCN2C(=O)[C@H]2CCCN2C(=O)[C@H](CO)NC(=O)[C@H](C)NC(=O)[C@H](C(C)(C)C)NC(=O)[C@@H](NC(=O)[C@H](Cc2c[nH]c3ccccc23)NC(C)=O)CSSC[C@@H](C(=O)N[C@@H](CCCN)C(=O)N[C@@H](CCN)C(=O)N[C@H]2CCNC(=O)[C@H]([C@@H](C)O)NC(=O)[C@H](CCN)NC(=O)[C@H](CCN)NC(=O)[C@H](CC(C)C)NC(=O)[C@@H](Cc3ccccc3)NC(=O)[C@H](CCN)NC2=O)NC(=O)[C@H](Cc2ccc(O)cc2)NC(=O)[C@H](CO)NC1=O` [Ex. 48] (Ac-WC[Tle]AS[dP]P[Nle]SYC[Orn][Dab][Dab][Dab][dF]L[Dab][Dab]T; disulfide 2-11; lactam 14-C), the “Hemolysis at 100 μg/mL” value in data set [1] was found to be 2%. In addition, in data set [2], the “Klebsiella pneumoniae SSI #3010 MIC” value was 0.25 µg/mL. In data set [3], the “Escherichia coli ATCC 25922 MIC” value is 0.125 µg/mL. The “Escherichia coli 926415 MIC” value with Escherichia coli 926415 came to 0.25 µg/mL. Moreover, the “Klebsiella pneumoniae 968733 MIC” value in data set [4] amounted to 1 µg/mL. For the same compound, the “Pseudomonas aeruginosa ATCC 27853 MIC” value in data set [5] came out at 1 µg/mL. In data set [6], the “Acinetobacter baumannii DSM 30008 MIC” value was found to be 0.5 µg/mL. Further, the “Acinetobacter baumannii 872842 MIC” value in data set [7] turned out to be 0.5 µg/mL.
